From patent US11040028B2, “Penicinotam derivative, preparation method and use thereof” (OCEAN UNIVERSITY OF CHINA, priority 2017, dated 2021)

Key:
Assay type in all cases: cell-based
BHK-21 cells = assay: Anti-fibrosis activity test: inhibition of BHK-21 cell proliferation (CCK-8); details: Mesocricetus auratus, BHK-21, 48 h
Outline: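 Proliferation of BHK-21 cells is measured by CCK-8 at 450 nm following 48 h compound exposure at several concentrations. Inhibition is expressed relative to blank control and IC50 is computed from it.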

[1] = test system: human lung fibroblasts HFL1; assay: Anti-fibrosis activity test: inhibition of proliferation of human lung fibroblasts HFL1 (CCK-8); details: Homo sapiens, HFL1, 48 h
Outline: (§1)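 48 h compound treatment of fibroblast-type cells seeded at 2×10^4 cells/mL, 37° C, 5% CO2; viability by CCK-8 (2 h, A450). Inhibition rate calculated against blank control, IC50 by curve fitting; pirfenidone served as reference.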

[2] = test system: human hepatic stellate cells LX-2; assay: Anti-fibrosis activity test: inhibition of proliferation of human hepatic stellate cells LX-2 (CCK-8); details: Homo sapiens, 48 h
Outline: as §1

[3] = test system: human fibrosarcoma cells HT-1080; assay: Anti-fibrosis activity test: inhibition of proliferation of human fibrosarcoma cells HT-1080 (CCK-8); details: Homo sapiens, HT-1080, 48 h
Outline: as §1

[4] = test system: human dermal fibroblasts CCC-ESF-1; assay: Anti-fibrosis activity test: inhibition of proliferation of human dermal fibroblasts CCC-ESF-1 (CCK-8); details: Fibroblast
Outline: as §1

[5] = test system: human embryonic lung fibroblast IMR-90; assay: Anti-fibrosis activity test: inhibition of proliferation of human embryonic lung fibroblast IMR-90 (CCK-8)
Outline: as §1

[6] = test system: cardiac fibroblast RAT-iCell-C002; assay: Anti-fibrosis activity test: inhibition of proliferation of cardiac fibroblast RAT-iCell-C002 (CCK-8); details: Cardiac fibroblast, 48 h
Outline: as §1

NF-κB = assay: Immunological activity test: inhibition of NF-κB activity; details: initial concentration of 30 μM; a/b isomers given as first/second symbol; read-out: IC50 (μM), inhibitory activity against NF-κB
Outline: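 Single-point testing at 30 μM preceded IC50 determination.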

[7] = test system: mouse macrophages (RAW264.7); assay: Lipopolysaccharide-induced NO secretion in macrophages (Griess); details: Mus musculus, RAW264.7, 24 h, RAW264.7, LPS 1 μg/ml, a/b isomers given as first/second symbol, read-out: IC50 (μM), inhibition of lipopolysaccharide-induced NO secretion in macrophages
Outline: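 RAW264.7 macrophages in DMEM with 10% FBS received test samples at several concentrations and were stimulated with 1 μg/ml LPS for 24 h. NO in the supernatant was measured with the Griess reagent at 548 nm, […].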

[8] = CCK-8, 48 hours after administration
[9] = human lung fibroblasts HFL1, CCK-8, 48 hours
[10] = human hepatic stellate cells LX-2, CCK-8, 48 hours
[11] = human fibrosarcoma cells HT-1080, CCK-8, 48 hours
[12] = human dermal fibroblasts CCC-ESF-1, CCK-8, 48 hours
[13] = human embryonic lung fibroblast IMR-90, CCK-8, 48 hours
[14] = cardiac fibroblast RAT-iCell-C002, CCK-8, 48 hours

| IC50 ([3]; HT-1080 cells, 48 h, CCK-8) | IC50 (NF-κB) | IC50 [7] | IC50 [3, 11] | SMILES | IC50 (BHK-21 cells; 48 h, CCK-8) | IC50 ([1]; HFL1 cells, 48 h, CCK-8) | IC50 ([2]; LX-2, 48 h, LX-2 cells, CCK-8) | IC50 ([4]; Homo sapiens, CCC-ESF-1 cells, 48 h, CCK-8) | IC50 ([5]; Homo sapiens, IMR-90 cells, 48 h, CCK-8) | IC50 ([6]; RAT-iCell-C002 cells, CCK-8) | IC50 (BHK-21 cells; [8]) | IC50 [1, 9] | IC50 [2, 10] | IC50 [4, 12] | IC50 [5, 13] | IC50 [6, 14] |
| --- | --- | --- | --- | --- | --- | --- | --- | --- | --- | --- | --- | --- | --- | --- | --- | --- |
| 0.05 to 5 mM | 1 to 10 µM | 1 to 10 µM |  | Cc1ccc2nc3c(c(O)c2c1)C(=O)n1cccc1-3 [Compound 696b, 9-hydroxy-7-methyl-10H-pyrrolizino[1,2-b]quinolin-10-one] | 0.05 to 5 mM | 0.05 to 5 mM | 0.05 to 5 mM | 0.05 to 5 mM | 0.05 to 5 mM | 0.05 to 5 mM |  |  |  |  |  |  |
|  | 1 to 10 µM | 1 to 10 µM | 0.05 to 5 mM | O=C1c2c(nc3ccccc3c2OCc2ccc(Br)cc2)-c2cccn21 [Compound 594b, 9-((4-bromobenzyl)oxy)-10H-pyrrolizino[1,2-b]quinolin-10-one] |  |  |  |  |  |  | 0.05 to 5 mM | 0.05 to 5 mM | 0.05 to 5 mM | 0.05 to 5 mM | 0.05 to 5 mM | 0.05 to 5 mM |
|  | 1 to 10 µM | 1 to 10 µM | 0.05 to 5 mM | CC(C)(C)c1ccc(COc2c3c(nc4ccccc24)-c2cccn2C3=O)cc1 [Compound 605b, 9-((4-(tert-butyl)benzyl)oxy)-10H-pyrrolizino[1,2-b]quinolin-10-one] |  |  |  |  |  |  | 0.05 to 5 mM | 0.05 to 5 mM | 0.05 to 5 mM | 0.05 to 5 mM | 0.05 to 5 mM | 0.05 to 5 mM |
|  | 1 to 10 µM | 1 to 10 µM | 0.05 to 5 mM | N#Cc1ccc2nc3c(c(O)c2c1)C(=O)n1cccc1-3 [Compound 222b, 9-hydroxy-10-oxo-10H-pyrrolizino[1,2-b]quinoline-7-carbonitrile] |  |  |  |  |  |  | 0.05 to 5 mM | 0.05 to 5 mM | 0.05 to 5 mM | 0.05 to 5 mM | 0.05 to 5 mM | 0.05 to 5 mM |
|  | 10 to 50 µM | 1 to 10 µM | 0.05 to 5 mM | O=C1c2c(nc3cccc(Cl)c3c2OCc2cccc(Cl)c2)-c2cccn21 [Compound 478b, 8-chloro-9-((3-chlorobenzyl)oxy)-10H-pyrrolizino[1,2-b]quinolin-10-one] |  |  |  |  |  |  | 0.05 to 5 mM | 0.05 to 5 mM | 0.05 to 5 mM | 0.05 to 5 mM | 0.05 to 5 mM | 0.05 to 5 mM |
|  | 1 to 10 µM | 1 to 10 µM | 0.05 to 5 mM | O=C1c2c([nH]c3cccc(Cl)c3c2=O)-c2cccn21 [Compound 464a, 8-Chloro-9H-pyrrolizino[1,2-b]quinoline-9,10(4H)-dione] |  |  |  |  |  |  | < 0.05 mM | < 0.05 mM | 0.05 to 5 mM | 0.05 to 5 mM | 0.05 to 5 mM | 0.05 to 5 mM |
|  | 1 to 10 µM | 1 to 10 µM | 0.05 to 5 mM | CS(=O)(=O)CCCOc1c2c(nc3ccccc13)-c1cccn1C2=O [Compound 659b, 9-(3-(methylsulfonyl)propoxy)-10H-pyrrolizino[1,2-b]quinolin-10-one] |  |  |  |  |  |  | 0.05 to 5 mM | 0.05 to 5 mM | 0.05 to 5 mM | 0.05 to 5 mM | 0.05 to 5 mM | 0.05 to 5 mM |
|  | 0.1 to 1 µM | 1 to 10 µM | 0.05 to 5 mM | Cn1c2c(c(=O)c3ccc(N4CCNCC4)cc31)C(=O)n1cccc1-2 [Compound 328a, 4-Methyl-6-(piperazin-1-yl)-9H-pyrrolizino[1,2-b]quinoline-9,10(4H)-dione] |  |  |  |  |  |  | < 0.05 mM | 0.05 to 5 mM | 0.05 to 5 mM | 0.05 to 5 mM | 0.05 to 5 mM | 0.05 to 5 mM |
|  | 1 to 10 µM | 1 to 10 µM | 0.05 to 5 mM | CCOC(=O)COc1c2c(nc3ccccc13)-c1cccn1C2=O [Compound 654b, ethyl 2-((10-oxo-10H-pyrrolizino[1,2-b]quinolin-9-yl)oxy)acetate] |  |  |  |  |  |  | 0.05 to 5 mM | 0.05 to 5 mM | 0.05 to 5 mM | < 0.05 mM | 0.05 to 5 mM | 0.05 to 5 mM |
|  | 1 to 10 µM | 1 to 10 µM | 0.05 to 5 mM | O=C1c2c(nc3ccccc3c2OCCN2CCNCC2)-c2cccn21 [Compound 98b, 9-(2-(piperazin-1-yl)ethoxy)-10H-pyrrolizino[1,2-b]quinolin-10-one] |  |  |  |  |  |  | 0.05 to 5 mM | 0.05 to 5 mM | 0.05 to 5 mM | 0.05 to 5 mM | 0.05 to 5 mM | 0.05 to 5 mM |
